Like-named read-outs stand apart in the source and are kept apart here.
Assays:
Type in all cases: cell-based, human
SK-OV-3 cells = experiment: CCK-8 anti-proliferative assay, SK-OV-3; conditions: Homo sapiens, SK-OV-3; Table 12; co-incubated 48 h; read-out: Anti-proliferative activity (IC50 ± standard deviation) SK-OV-3
How it was run: (§1)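 CCK-8 viability assay: compounds at final 1, 2, 4, 6, 8, 12, 16, 24 and 30 μM (3 wells each) added once cultures of 5,000 cells/well reached 70% confluence at 37° C, 5% CO2.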

UM-UC-3 cells = experiment: CCK-8 anti-proliferative assay, UM-UC-3; conditions: Homo sapiens, UMUC3; Table 10; co-incubated 48 h; read-out: Anti-proliferative activity (IC50 ± standard deviation) UM-UC-3
How it was run: as §1

143B cells = experiment: CCK-8 anti-proliferative assay, 143B; conditions: Homo sapiens, 143B; Table 11; co-incubated 48 h; read-out: Anti-proliferative activity (IC50 ± standard deviation) 143B
How it was run: (§2)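 Logarithmic-phase cells are plated at 5,000 cells per well and incubated at 37° C. with 5% CO2. At 70% confluency, compound is added at nine final concentrations from 1 to 30 μM. After exposure, CCK-8 is added and OD at 450 nm measured to calculate IC50.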

A549 cells = experiment: CCK-8 anti-proliferative assay, A549; conditions: Homo sapiens, A549; Table 13; co-incubated 48 h; read-out: Anti-proliferative activity (IC50 ± standard deviation) A549
How it was run: as §1

[1] = tested on: embryonic lung fibroblasts (WI-38); experiment: CCK-8 anti-proliferative assay, normal cells WI-38; conditions: Homo sapiens, WI-38, Table 13, co-incubated 48 h, read-out: Anti-proliferative activity (IC50 ± standard deviation) WI-38
How it was run: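 Cells seeded at 5,000/well were grown at 37° C. under 5% CO2 to 70% confluency, then exposed in triplicate to 1–30 μM compound (1, 2, 4, 6, 8, 12, 16, 24, 30 μM) for designated durations. CCK-8 was added for 1–4 h, OD read at 450 nm, and IC50 derived from inhibition versus control.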

MCF-7 cells = experiment: CCK-8 anti-proliferative assay, MCF-7; conditions: Homo sapiens, MCF7; Table 12; co-incubated 48 h; read-out: Anti-proliferative activity (IC50 ± standard deviation) MCF-7
How it was run: as §1

T24 cells = experiment: CCK-8 anti-proliferative assay, T24; conditions: Homo sapiens, T-24; Table 10; co-incubated 48 h; read-out: Anti-proliferative activity (IC50 ± standard deviation) T24
How it was run: as §2

Hep G2 cells = experiment: CCK-8 anti-proliferative assay, Hep G2; conditions: for IC50: Homo sapiens, HepG2
How it was run: as §2

PANC-1 cells = experiment: CCK-8 anti-proliferative assay, PANC-1; conditions: for IC50: Homo sapiens, PANC-1, Table 11, co-incubated 48 h, read-out: Anti-proliferative activity (IC50 ± standard deviation) PANC-1
How it was run: as §2

BxPC-3 cells = experiment: CCK-8 anti-proliferative assay, BxPC-3; conditions: for IC50: Homo sapiens, BXPC-3, Table 11, co-incubated 48 h, read-out: Anti-proliferative activity (IC50 ± standard deviation) BxPC-3
How it was run: as §2

MG-63 cells = experiment: CCK-8 anti-proliferative assay, MG-63; conditions: Homo sapiens, MG-63; Table 11; co-incubated 48 h; read-out: Anti-proliferative activity (IC50 ± standard deviation) MG-63
How it was run: as §2

HeLa cells = experiment: CCK-8 anti-proliferative assay, HeLa; conditions: Homo sapiens, HeLa; Table 12; co-incubated 48 h; read-out: Anti-proliferative activity (IC50 ± standard deviation) HeLa
How it was run: as §1

[2] = tested on: immortalized ureteral epithelial cells (SV-HUC-1); experiment: CCK-8 anti-proliferative assay, normal cells SV-HUC-1; conditions: Homo sapiens, SV-HUC1; Table 13; normal cells; co-incubated 48 h; read-out: Anti-proliferative activity (IC50 ± standard deviation) SV-HUC-1
How it was run: as §1

5637 cells = experiment: CCK-8 anti-proliferative assay, 5637; conditions: Homo sapiens; Table 10; co-incubated 48 h; read-out: Anti-proliferative activity (IC50 ± standard deviation) 5637
How it was run: as §1

J82 cells = experiment: CCK-8 anti-proliferative assay, J82; conditions: Homo sapiens, J82; Table 10; co-incubated 48 h; read-out: Anti-proliferative activity (IC50 ± standard deviation) J82
How it was run: as §1

[3] = Table 12, co-incubated 48 h, read-out: Anti-proliferative activity (IC50 ± standard deviation) Hep G2

IC50 (SK-OV-3 cells) [µM]	IC50 (A549 cells) [µM]	IC50 (MCF-7 cells) [µM]	IC50 (T24 cells) [µM]	IC50 (PANC-1 cells) [µM]	IC50 (BxPC-3 cells) [µM]	IC50 (HeLa cells) [µM]	Compound	IC50 (UM-UC-3 cells) [µM]	IC50 (143B cells) [µM]	IC50 [1] [µM]	Anti-proliferative activity against Hep G2 versus comparative series, in words (Hep G2 cells)	IC50 (Hep G2 cells; [3]) [µM]	IC50 (Hep G2 cells; read-out: IC50 on Hep G2) [µM]	Sensitivity of PANC-1, in words (PANC-1 cells)	Sensitivity of BxPC-3 / anti-proliferative activity against BxPC-3, in words (BxPC-3 cells)	IC50 (MG-63 cells) [µM]	IC50 [2] [µM]	IC50 (5637 cells) [µM]	IC50 (J82 cells) [µM]
7.26 ± 0.72	4.92 ± 0.29	7.65 ± 0.69	5.57 ± 0.36	8.37 ± 0.66	5.46 ± 0.44	5.26 ± 0.29	COc1cc2ncnc(NCc3cccc(NC(=O)Nc4ccc(C)cc4C)c3)c2cc1OCCCCCCN1CCC(CN2CCN(c3ccccn3)CC2)CC1 [Compound 8-2e, N-(3-(((7-methoxy-6-((6-(4-((4-(pyridin-2-yl)piperazin-1-yl)methyl)piperidin-1-yl)hexyl)oxy)quinazolin-4-yl)amino)methyl)phenyl)-N′-(2,4-dimethylphenyl)urea]	6.68 ± 0.47	5.19 ± 0.33	10.9 ± 0.66	significantly better than that of 9a to 9y	3.68 ± 0.19	3.68 ± 0.19	heightened sensitivity	heightened sensitivity	7.03 ± 0.71	7.56 ± 0.38	4.31 ± 0.42	5.31 ± 0.26
14.2 ± 0.84	7.67 ± 0.93	8.09 ± 0.48	6.01 ± 0.46	12.8 ± 0.62	9.06 ± 0.42	7.25 ± 0.38	COc1cc2ncnc(NCc3cccc(NC(=O)Nc4cc(C)cc(C)c4)c3)c2cc1OCCCCCCN1CCC(CN2CCN(c3ccccn3)CC2)CC1 [Compound 8-2f, N-(3-(((7-methoxy-6-((6-(4-((4-(pyridin-2-yl)piperazin-1-yl)methyl)piperidin-1-yl)hexyl)oxy)quinazolin-4-yl)amino)methyl)phenyl)-N′-(3,5-dimethylphenyl)urea]	12 ± 0.86	5.75 ± 0.36	9.89 ± 0.53	–	11.7 ± 0.84	–	–	–	6.92 ± 0.53	11.6 ± 0.79	6.91 ± 0.67	12 ± 0.87
8.96 ± 0.83	6.59 ± 0.64	7.62 ± 0.77	7.04 ± 0.55	8.79 ± 0.98	8.56 ± 0.72	5.62 ± 0.44	CCc1ccccc1NC(=O)Nc1cccc(CNc2ncnc3cc(OC)c(OCCCCCCN4CCC(CN5CCN(c6ccccn6)CC5)CC4)cc23)c1 [Compound 8-2g, N-(3-(((7-methoxy-6-((6-(4-((4-(pyridin-2-yl)piperazin-1-yl)methyl)piperidin-1-yl)hexyl)oxy)quinazolin-4-yl)amino)methyl)phenyl)-N′-(2-ethylphenyl)urea]	11.6 ± 0.62	5.37 ± 0.29	9.39 ± 0.41	–	6.38 ± 0.44	–	–	–	6.04 ± 0.65	7.42 ± 0.35	6.04 ± 0.43	5.76 ± 0.31
6.69 ± 0.49	7.63 ± 0.87	6.21 ± 0.63	5.92 ± 0.47	9.42 ± 0.83	8.97 ± 0.89	4.97 ± 0.48	COc1cc2ncnc(NCc3cccc(NC(=O)Nc4ccc(C(C)C)cc4)c3)c2cc1OCCCCCCN1CCC(CN2CCN(c3ccccn3)CC2)CC1 [Compound 8-2i, N-(3-(((7-methoxy-6-((6-(4-((4-(pyridin-2-yl)piperazin-1-yl)methyl)piperidin-1-yl)hexyl)oxy)quinazolin-4-yl)amino)methyl)phenyl)-N′-(4-isopropylphenyl)urea]	6.32 ± 0.44	6.38 ± 0.33	10.5 ± 0.36	–	3.85 ± 0.29	–	–	–	4.79 ± 0.46	10.8 ± 0.74	4.24 ± 0.32	5.88 ± 0.35
6.32 ± 0.56	14.2 ± 1.31	6.68 ± 0.79	5.34 ± 0.27	15.9 ± 0.94	7.11 ± 0.79	5.51 ± 0.49	COc1ccccc1NC(=O)Nc1cccc(CNc2ncnc3cc(OC)c(OCCCCCCN4CCC(CN5CCN(c6ccccn6)CC5)CC4)cc23)c1 [Compound 8-2k, N-(3-(((7-methoxy-6-((6-(4-((4-(pyridin-2-yl)piperazin-1-yl)methyl)piperidin-1-yl)hexyl)oxy)quinazolin-4-yl)amino)methyl)phenyl)-N′-(2-methoxyphenyl)urea]	7.19 ± 0.52	6.08 ± 0.37	11.2 ± 0.65	–	4.99 ± 0.47	–	–	–	6.38 ± 0.43	13 ± 0.88	5.63 ± 0.38	5.68 ± 0.42
11.7 ± 0.88	> 30	7.29 ± 0.63	6.02 ± 0.46	> 30	18.9 ± 1.24	6.42 ± 0.69	COc1ccc(NC(=O)Nc2cccc(CNc3ncnc4cc(OC)c(OCCCCCCN5CCC(CN6CCN(c7ccccn7)CC6)CC5)cc34)c2)cc1 [Compound 8-2l, N-(3-(((7-methoxy-6-((6-(4-((4-(pyridin-2-yl)piperazin-1-yl)methyl)piperidin-1-yl)hexyl)oxy)quinazolin-4-yl)amino)methyl)phenyl)-N′-(4-methoxyphenyl)urea]	12 ± 0.94	6.75 ± 0.41	13.9 ± 0.71	–	4.74 ± 0.62	–	–	–	7.69 ± 0.58	10.9 ± 0.69	9.12 ± 0.59	7.83 ± 0.69
5.93 ± 0.61	15.4 ± 0.83	12.8 ± 0.85	5.82 ± 0.36	18.8 ± 1.43	14.4 ± 1.55	12.7 ± 0.92	COc1cc2ncnc(NCc3cccc(NC(=O)Nc4ccc(F)cc4)c3)c2cc1OCCCCCCN1CCC(CN2CCN(c3ccccn3)CC2)CC1 [Compound 8-2n, N-(3-(((7-methoxy-6-((6-(4-((4-(pyridin-2-yl)piperazin-1-yl)methyl)piperidin-1-yl)hexyl)oxy)quinazolin-4-yl)amino)methyl)phenyl)-N′-(4-fluorophenyl)urea]	12.8 ± 0.76	6.71 ± 0.48	9.98 ± 0.53	–	8.51 ± 0.67	–	–	–	8.39 ± 0.66	14.4 ± 0.77	8.61 ± 0.73	15 ± 1.19
11.9 ± 0.94	27.2 ± 2.04	16.2 ± 1.07	7.93 ± 0.22	> 30	22.4 ± 1.27	13.7 ± 1.29	COc1cc2ncnc(NCc3cccc(NC(=O)Nc4ccccc4Cl)c3)c2cc1OCCCCCCN1CCC(CN2CCN(c3ccccn3)CC2)CC1 [Compound 8-2o, N-(3-(((7-methoxy-6-((6-(4-((4-(pyridin-2-yl)piperazin-1-yl)methyl)piperidin-1-yl)hexyl)oxy)quinazolin-4-yl)amino)methyl)phenyl)-N′-(2-chlorophenyl)urea]	15.9 ± 0.95	13.8 ± 0.82	12.7 ± 0.89	–	16 ± 0.96	–	–	–	9.92 ± 0.82	16.2 ± 0.84	12.4 ± 0.89	16.7 ± 1.52
5.62 ± 0.47	13.3 ± 0.86	6.44 ± 0.71	6.76 ± 0.38	15.2 ± 0.67	13.2 ± 0.78	7.72 ± 0.34	COc1cc2ncnc(NCc3cccc(NC(=O)Nc4ccc(Cl)cc4)c3)c2cc1OCCCCCCN1CCC(CN2CCN(c3ccccn3)CC2)CC1 [Compound 8-2q, N-(3-(((7-methoxy-6-((6-(4-((4-(pyridin-2-yl)piperazin-1-yl)methyl)piperidin-1-yl)hexyl)oxy)quinazolin-4-yl)amino)methyl)phenyl)-N′-(4-chlorophenyl)urea]	7.19 ± 0.47	7.08 ± 0.85	7.36 ± 0.23	–	10.7 ± 0.98	–	–	–	8.61 ± 0.53	9.49 ± 0.73	4.32 ± 0.33	6.69 ± 0.53

Reference: patent publication US20260285816A1, “Piperazinyl-Modified Quinazolinyl-Aryl Urea Derivative, And Preparation Method And Use Thereof” (Guangxi Normal University, priority 2025, published 2026)
